Results published in patent US10894784B2, “Heteroarylbenzimidazole compounds” (BAYER PHARMA AKTIENGESELLSCHAFT, priority 2015, dated 2021).

Molecular target: TBK1 (Homo sapiens (Human), UniProt Q9UHD2)
Test: TBK1 low ATP kinase assay (in vitro assay 1)
Format: biochemical
Conditions: in vitro assay 1, read-out: TBK1 low ATP kinase assay IC50

Chain of TBK1 (Q9UHD2 whole entry): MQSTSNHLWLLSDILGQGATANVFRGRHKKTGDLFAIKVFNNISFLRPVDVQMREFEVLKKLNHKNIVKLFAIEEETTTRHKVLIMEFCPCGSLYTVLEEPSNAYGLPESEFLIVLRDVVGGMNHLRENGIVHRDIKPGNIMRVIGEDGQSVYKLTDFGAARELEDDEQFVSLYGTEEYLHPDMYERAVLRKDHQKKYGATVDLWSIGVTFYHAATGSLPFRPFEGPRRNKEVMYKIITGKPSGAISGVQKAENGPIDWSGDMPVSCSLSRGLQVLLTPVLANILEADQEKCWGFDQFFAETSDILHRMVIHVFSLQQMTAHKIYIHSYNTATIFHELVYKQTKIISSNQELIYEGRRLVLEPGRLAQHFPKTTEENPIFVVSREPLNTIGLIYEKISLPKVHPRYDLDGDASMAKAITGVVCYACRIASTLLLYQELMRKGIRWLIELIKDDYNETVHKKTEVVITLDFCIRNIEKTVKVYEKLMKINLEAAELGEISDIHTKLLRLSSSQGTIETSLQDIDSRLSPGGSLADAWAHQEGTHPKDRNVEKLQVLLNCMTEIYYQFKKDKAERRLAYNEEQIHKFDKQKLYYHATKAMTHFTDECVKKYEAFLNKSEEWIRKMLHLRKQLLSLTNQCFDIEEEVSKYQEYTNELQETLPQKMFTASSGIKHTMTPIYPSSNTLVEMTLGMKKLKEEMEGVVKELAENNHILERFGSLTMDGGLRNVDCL

SMILES	IC50
COc1cc(-c2ccc3nc(Nc4cc(CN5CCN(C(=O)C6CC6)CC5)ccn4)[nH]c3c2)ncn1 [Example 163.03, cyclopropyl{4-[(2-{[6-(6-methoxypyrimidin-4-yl)-1H-benzimidazol-2-yl]amino}pyridin-4-yl)methyl]piperazin-1-yl}methanone]	18 nM
CCOc1ncnc(-c2ccc3nc(Nc4cc(CN5CCN(C(=O)OC(C)(C)C)CC5)ccn4)[nH]c3c2)c1OC [Example 167.01, tert-butyl 4-[(2-{[6-(6-ethoxy-5-methoxypyrimidin-4-yl)-1H-benzimidazol-2-yl]amino}pyridin-4-yl)methyl]piperazine-1-carboxylate]	222 nM
CCOc1ncnc(-c2ccc3nc(Nc4cc(CN5CCN(C(=O)CC(F)(F)F)CC5)ccn4)[nH]c3c2)c1OC [Example 167.02, 1-{4-[(2-{[6-(6-ethoxy-5-methoxypyrimidin-4-yl)-1H-benzimidazol-2-yl]amino}pyridin-4-yl)methyl]piperazin-1-yl}-3,3,3-trifluoropropan-1-one]	35 nM
CCOc1ncnc(-c2ccc3nc(Nc4cc(CN5CCN(C(=O)C6CC6)CC5)ccn4)[nH]c3c2)c1OC [Example 167.03, cyclopropyl{4-[(2-{[6-(6-ethoxy-5-methoxypyrimidin-4-yl)-1H-benzimidazol-2-yl]amino}pyridin-4-yl)methyl]piperazin-1-yl}methanone]	41.3 nM
CCOc1ncnc(-c2ccc3nc(Nc4cc(CN5CCN(C(=O)C6(C(F)(F)F)CC6)CC5)ccn4)[nH]c3c2)c1OC [Example 167.04]	23.7 nM
O=C(CC(F)(F)F)N1CCN(Cc2ccnc(Nc3nc4ccc(-c5ncnc6ccoc56)cc4[nH]3)c2)CC1 [Example 168.02, 3,3,3-trifluoro-1-{4-[(2-{[6-(furo[3,2-d]pyrimidin-4-yl)-1H-benzimidazol-2-yl]amino}pyridin-4-yl)methyl]piperazin-1-yl}propan-1-one]	4.18 nM
O=C(C1CC1)N1CCN(Cc2ccnc(Nc3nc4ccc(-c5ncnc6ccoc56)cc4[nH]3)c2)CC1 [Example 168.03, cyclopropyl{4-[(2-{[6-(furo[3,2-d]pyrimidin-4-yl)-1H-benzimidazol-2-yl]amino}pyridin-4-yl)methyl]piperazin-1-yl}methanone]	7.12 nM
O=C(CC(F)(F)F)N1CCN(Cc2ccnc(Nc3nc4ccc(-c5ccsc5Cl)cc4[nH]3)c2)CC1 [Example 175.02, 1-{4-[(2-{[6-(2-chlorothiophen-3-yl)-1H-benzimidazol-2-yl]amino}pyridin-4-yl)methyl]piperazin-1-yl}-3,3,3-trifluoropropan-1-one]	353 nM
O=C(C1CC1)N1CCN(Cc2ccnc(Nc3nc4ccc(-c5ccsc5Cl)cc4[nH]3)c2)CC1 [Example 175.03, {4-[(2-{[6-(2-chlorothiophen-3-yl)-1H-benzimidazol-2-yl]amino}pyridin-4-yl)methyl]piperazin-1-yl}(cyclopropyl)methanone]	223 nM
COc1cc(-c2ccc3nc(Nc4cc(CN5CCN(C(=O)CC(F)(F)F)CC5)ccn4)[nH]c3c2)nc(C)n1 [Example 176.02, 3,3,3-trifluoro-1-{4-[(2-{[6-(6-methoxy-2-methylpyrimidin-4-yl)-1H-benzimidazol-2-yl]amino}pyridin-4-yl)methyl]piperazin-1-yl}propan-1-one]	3580 nM
CN(C)c1ncnc(-c2ccc3nc(Nc4cc(CN5CCN(C(=O)CC(F)(F)F)CC5)ccn4)[nH]c3c2)c1Cl [Example 179.02, 1-(4-{[2-({6-[5-chloro-6-(dimethylamino)pyrimidin-4-yl]-1H-benzimidazol-2-yl}amino)pyridin-4-yl]methyl}piperazin-1-yl)-3,3,3-trifluoropropan-1-one]	1140 nM

Other lines, results leading:

IC50	SMILES
227 nM	CC(C)(C)OC(=O)N1CCN(Cc2ccnc(Nc3nc4ccc(-c5ccnc(N6CCCC6)n5)cc4[nH]3)c2)CC1 [Example 177.01, tert-butyl 4-{[2-({6-[2-(pyrrolidin-1-yl)pyrimidin-4-yl]-1H-benzimidazol-2-yl}amino)pyridin-4-yl]methyl}piperazine-1-carboxylate]
74.5 nM	O=C(CC(F)(F)F)N1CCN(Cc2ccnc(Nc3nc4ccc(-c5ccnc(N6CCCC6)n5)cc4[nH]3)c2)CC1 [Example 177.02, 3,3,3-trifluoro-1-(4-{[2-({6-[2-(pyrrolidin-1-yl)pyrimidin-4-yl]-1H-benzimidazol-2-yl}amino)pyridin-4-yl]methyl}piperazin-1-yl)propan-1-one]
890 nM	Cc1cc(-c2ccc3nc(Nc4cc(CN5CCN(C(=O)OC(C)(C)C)CC5)ccn4)[nH]c3c2)nc(N(C)C)n1 [Example 178.01, tert-butyl 4-{[2-({6-[2-(dimethylamino)-6-methylpyrimidin-4-yl]-1H-benzimidazol-2-yl}amino)pyridin-4-yl]methyl}piperazine-1-carboxylate]
402 nM	Cc1cc(-c2ccc3nc(Nc4cc(CN5CCN(C(=O)CC(F)(F)F)CC5)ccn4)[nH]c3c2)nc(N(C)C)n1 [Example 178.02, 1-(4-{[2-({6-[2-(dimethylamino)-6-methylpyrimidin-4-yl]-1H-benzimidazol-2-yl}amino)pyridin-4-yl]methyl}piperazin-1-yl)-3,3,3-trifluoropropan-1-one]
3010 nM	CN(C)c1ncnc(-c2ccc3nc(Nc4cc(CN5CCN(C(=O)OC(C)(C)C)CC5)ccn4)[nH]c3c2)c1Cl [Example 179.01, tert-butyl 4-{[2-({6-[5-chloro-6-(dimethylamino)pyrimidin-4-yl]-1H-benzimidazol-2-yl}amino)pyridin-4-yl]methyl}piperazine-1-carboxylate]
1260 nM	CN(C)c1ncnc(-c2ccc3nc(Nc4cc(CN5CCN(C(=O)C6CC6)CC5)ccn4)[nH]c3c2)c1Cl [Example 179.03, (4-{[2-({6-[5-chloro-6-(dimethylamino)pyrimidin-4-yl]-1H-benzimidazol-2-yl}amino)pyridin-4-yl]methyl}piperazin-1-yl)(cyclopropyl)methanone]
576 nM	CC(C)(C)OC(=O)N1CCN(Cc2ccnc(Nc3nc4ccc(-c5ncccn5)cc4[nH]3)c2)CC1 [Example 180.01, tert-butyl 4-[(2-{[6-(pyrimidin-2-yl)-1H-benzimidazol-2-yl]amino}pyridin-4-yl)methyl]piperazine-1-carboxylate]
556 nM	O=C(CC(F)(F)F)N1CCN(Cc2ccnc(Nc3nc4ccc(-c5ncccn5)cc4[nH]3)c2)CC1 [Example 180.02, 3,3,3-trifluoro-1-{4-[(2-{[6-(pyrimidin-2-yl)-1H-benzimidazol-2-yl]amino}pyridin-4-yl)methyl]piperazin-1-yl}propan-1-one]
364 nM	O=C(C1CC1)N1CCN(Cc2ccnc(Nc3nc4ccc(-c5ncccn5)cc4[nH]3)c2)CC1 [Example 180.03, cyclopropyl{4-[(2-{[6-(pyrimidin-2-yl)-1H-benzimidazol-2-yl]amino}pyridin-4-yl)methyl]piperazin-1-yl}methanone]
791 nM	CN(C)c1ccnc(-c2ccc3nc(Nc4cc(CN5CCN(C(=O)OC(C)(C)C)CC5)ccn4)[nH]c3c2)n1 [Example 181.01, tert-butyl 4-{[2-({6-[4-(dimethylamino)pyrimidin-2-yl]-1H-benzimidazol-2-yl}amino)pyridin-4-yl]methyl}piperazine-1-carboxylate]
